For the assay, the system named is MDA-231 cancer cells. In words: Inhibition of proliferation assay, cell confluence (IncuCyte live cell imaging). In kind it is cell-based. As to conditions: MDA-231 cells, concentration 10 uM; relative confluence normalised to time zero, images every 3 h over 4-5 d. An excerpt: Inhibition of Proliferation Assay Cell Confluence The confluence value is a surrogate for cell proliferation and growth. The value is expressed as a percent confluence, which represents the fraction of culture dish-surface that is occupied by cells. As the number of cells in the dish increases over time due to proliferation, so will their coverage of that surface increase. Expansion of the cell population on the cell culture-dish surface and confluence have mostly a linear relationship until the cells on the plate surface begin to reach saturation or maximum density. Confluence is determined based on image analysis. Image based software can identify objects in the image field base on changes to pixel density in a grey scale image. The software can then assign a mask to those pixels within the object. Objects can be ‘gated’ out based on size and shape. To determine cell confluence, images of cells are first masked as objects. The surface area of the image that is masked is measured and compared to the total surface area of the culture dish surface to obtain a percent confluence. MDA-231 cancer cells were obtained from ATCC. Cells were cultured in Dulbecco's Modified Eagle Medium (DMEM) supplemented with 10% Fetal Bovine Serum (FBS), 2 mM Glutamax, 1 mM Non Essential Amino Acid (NEAA) solution and 1 mM sodium pyruvate. Compounds were dissolved in DMSO at 10 mM and diluted in cellular medium and tested at 10 μM (micromolar). Final DMSO concentrations were <0.1%. Images were acquired with an IncuCyte Live Cell Imaging microscopy (Essen Bioscience) at every 3 h under cell culture conditions with 10× objective over 4-5 d. Cell confluence was calculated from one field of view per well using the IncuCyte in-built algorithm. Relative confluence values were obtained by normalising each value to the time zero value in each sample.
For the compound `CC[C@H]1OC(=O)[C@H](C)[C@@H](O[C@H]2C[C@@](C)(OC)[C@@H](O)[C@H](C)O2)[C@H](C)[C@@H](O[C@@H]2O[C@H](C)C[C@H](N(C)C)[C@H]2O)[C@](C)(O)C[C@@H](C)CN(C(=O)CCCCCCCCCCCCC[P+](c2ccccc2)(c2ccccc2)c2ccccc2)[C@H](C)[C@@H](O)[C@]1(C)O` [Example 1, {14-[(2R,3S,4R,5R,8R,10R,11R,12S,13S,14R)-11-{[(2S,3R,4S,6R)-4-(dimethylamino)-3-hydroxy-6-methyloxan-2-yl]oxy}-2-ethyl-3,4,10-trihydroxy-13-{[(2R,4R,5S,6S)-5-hydroxy-4-methoxy-4,6-dimethyloxan-2-yl]oxy}-3,5,8,10,12,14-hexamethyl-15-oxo-1-oxa-6-azacyclopentadecan-6-yl]-14-oxotetradecyl}triphenylphosphonium hexafluorophosphate(V)], the “% Confluence” value came to 4.2%.

In the case of `CC[C@H]1OC(=O)[C@H](C)[C@@H](O[C@H]2C[C@@](C)(OC)[C@@H](O)[C@H](C)O2)[C@H](C)[C@@H](O[C@@H]2O[C@H](C)C[C@H](N(C)C)[C@H]2O)[C@](C)(O)C[C@@H](C)CN(C)[C@H](C)[C@@H](OC(=O)NCCCCCC[P+](c2ccccc2)(c2ccccc2)c2ccccc2)[C@]1(C)O.[Br-]` [Example 17, (2R,3R,4R,5R,8R,10R,11R,12S,13S,14R)-11-{[(2S,3R,4S,6R)-4-(dimethylamino)-3-hydroxy-6-methyloxan-2-yl]oxy}-2-ethyl-3,10-dihydroxy-13-{[(2R,4R,5S,6S)-5-hydroxy-4-methoxy-4,6-dimethyloxan-2-yl]oxy}-3,5,6,8,10,12,14-heptamethyl-15-oxo-1-oxa-6-azacyclopentadecan-4-yl N-[6-(triphenylphosphoniumyl)hexyl]carbamate bromide], the “% Confluence” value is listed as 82.6%.

Regarding `CC[C@H]1OC(=O)[C@H](C)[C@@H](O[C@H]2C[C@@](C)(OC)[C@@H](O)[C@H](C)O2)[C@H](C)[C@@H](O[C@@H]2O[C@H](C)C[C@H](N(C)C)[C@H]2O)[C@](C)(O)C[C@@H](C)CN(C(=O)CCOCCOCC[P+](c2ccccc2)(c2ccccc2)c2ccccc2)[C@H](C)[C@@H](O)[C@]1(C)O.[Br-]` [Example 23, [2-(2-{3-[(2R,3S,4R,5R,8R,10R,11R,12S,13S,14R)-11-{[(2S,3R,4S,6R)-4-(dimethylamino)-3-hydroxy-6-methyloxan-2-yl]oxy}-2-ethyl-3,4,10-trihydroxy-13-{[(2R,4R,5S,6S)-5-hydroxy-4-methoxy-4,6-dimethyloxan-2-yl]oxy}-3,5,6,8,10,12,14-hexamethyl-15-oxo-1-oxa-6-azacyclopentadecan-6-yl]-3-oxopropoxy}ethoxy)ethyl]triphenylphosphonium bromide], the “% Confluence” value is given as 118%.

As for `CC[C@H]1OC(=O)[C@H](C)[C@@H](O)[C@H](C)[C@@H](O[C@@H]2O[C@H](C)C[C@H](N(C)C)[C@H]2O)[C@](C)(O)C[C@@H](C)CN(C(=O)CCCCCCCCCCCCC[P+](c2ccccc2)(c2ccccc2)c2ccccc2)[C@H](C)[C@@H](O)[C@]1(C)O` [Example 21, {14-[(2R,3S,4R,5R,8R,10R,11R,12S,13S,14R)-11-{[(2S,3R,4S,6R)-4-(dimethylamino)-3-hydroxy-6-methyloxan-2-yl]oxy}-2-ethyl-3,4,10,13-tetrahydroxy-3,5,8,10,12,14-hexamethyl-15-oxo-1-oxa-6-azacyclopentadecan-6-yl]-14-oxotetradecyl}triphenylphosphonium hexafluorophosphate(V)], the “% Confluence” value is on record as 8%.

For `CC[C@H]1OC(=O)[C@H](C)[C@@H](O[C@H]2C[C@@](C)(OC)[C@@H](O)[C@H](C)O2)[C@H](C)[C@@H](O[C@@H]2O[C@H](C)C[C@H](N(C)C)[C@H]2O)[C@](C)(O)C[C@@H](C)CN(C(=O)CCCCCC[P+](c2ccccc2)(c2ccccc2)c2ccccc2)[C@H](C)[C@@H](O)[C@]1(C)O` [Example 4, {7-[(2R,3S,4R,5R,8R,10R,11R,12S,13S,14R)-11-{[(2S,3R,4S,6R)-4-(dimethylamino)-3-hydroxy-6-methyloxan-2-yl]oxy}-2-ethyl-3,4,10-trihydroxy-13-{[(2R,4R,5S,6S)-5-hydroxy-4-methoxy-4,6-dimethyloxan-2-yl]oxy}-3,5,8,10,12,14-hexamethyl-15-oxo-1-oxa-6-azacyclopentadecan-6-yl]-7-oxoheptyl}triphenylphosphonium hexafluorophosphate(V)], the “% Confluence” value is on record as 89.9%.

For the compound `CC[C@H]1OC(=O)[C@H](C)[C@@H](O[C@H]2C[C@@](C)(OC)[C@@H](O)[C@H](C)O2)[C@H](C)[C@@H](O[C@@H]2O[C@H](C)C[C@H](N(C)C)[C@H]2O)[C@](C)(O)C[C@@H](C)CN(C(=O)CCCCCCC[P+](c2ccccc2)(c2ccccc2)c2ccccc2)[C@H](C)[C@@H](O)[C@]1(C)O` [Example 9, {8-[(2R,3S,4R,5R,8R,10R,11R,12S,13S,14R)-11-{[(2S,3R,4S,6R)-4-(dimethylamino)-3-hydroxy-6-methyloxan-2-yl]oxy}-2-ethyl-3,4,10-trihydroxy-13-{[(2R,4R,5S,6S)-5-hydroxy-4-methoxy-4,6-dimethyloxan-2-yl]oxy}-3,5,8,10,12,14-hexamethyl-15-oxo-1-oxa-6-azacyclopentadecan-6-yl]-8-oxooctyl}triphenylphosphonium hexafluorophosphate(V)], the “% Confluence” value is 105.3%.

With `CC[C@H]1OC(=O)[C@H](C)[C@@H](O[C@H]2C[C@@](C)(OC)[C@@H](O)[C@H](C)O2)[C@H](C)[C@@H](O[C@@H]2O[C@H](C)C[C@H](N(C)C)[C@H]2O)[C@](C)(O)C[C@@H](C)CN(CCCCCC[P+](c2ccccc2)(c2ccccc2)c2ccccc2)[C@H](C)[C@@H](O)[C@]1(C)O` [Example 8, {6-[(2R,3S,4R,5R,8R,10R,11R,12S,13S,14R)-11-{[(2S,3R,4S,6R)-4-(dimethylamino)-3-hydroxy-6-methyloxan-2-yl]oxy}-2-ethyl-3,4,10-trihydroxy-13-{[(2R,4R,5S,6S)-5-hydroxy-4-methoxy-4,6-dimethyloxan-2-yl]oxy}-3,5,8,10,12,14-hexamethyl-15-oxo-1-oxa-6-azacyclopentadecan-6-yl]hexyl}triphenylphosphonium iodide], the “% Confluence” value turned out to be 109.9%.

Consider `CC[C@H]1OC(=O)[C@H](C)[C@@H](O[C@H]2C[C@@](C)(OC)[C@@H](O)[C@H](C)O2)[C@H](C)[C@@H](O[C@@H]2O[C@H](C)C[C@H](N(C)C)[C@H]2O)[C@](C)(O)C[C@@H](C)CN(C(=O)CCCCCCCCC[P+](c2ccccc2)(c2ccccc2)c2ccccc2)[C@H](C)[C@@H](O)[C@]1(C)O` [Example 2, {10-[(2R,3S,4R,5R,8R,10R,11R,12S,13S,14R)-11-{[(2S,3R,4S,6R)-4-(dimethylamino)-3-hydroxy-6-methyloxan-2-yl]oxy}-2-ethyl-3,4,10-trihydroxy-13-{[(2R,4R,5S,6S)-5-hydroxy-4-methoxy-4,6-dimethyloxan-2-yl]oxy}-3,5,8,10,12,14-hexamethyl-15-oxo-1-oxa-6-azacyclopentadecan-6-yl]-10-oxodecyl}triphenylphosphonium hexafluorophosphate(V)], for which the “% Confluence” value is on record as 13.4%.

For the compound `CC[C@H]1OC(=O)[C@H](C)[C@@H](O[C@H]2C[C@@](C)(OC)[C@@H](O)[C@H](C)O2)[C@H](C)[C@@H](O[C@@H]2O[C@H](C)C[C@H](N(C)C)[C@H]2OC(C)=O)[C@](C)(O)C[C@@H](C)CN(C)[C@H](C)[C@@H](OC(=O)NCCCCCCCCCC[P+](c2ccccc2)(c2ccccc2)c2ccccc2)[C@]1(C)O.[Br-]` [Example 18, (2S,3R,4S,6R)-4-(dimethylamino)-2-{[(2R,3R,4R,5R,8R,10R,11R,12S,13S,14R)-2-ethyl-3,10-dihydroxy-13-{[(2R,4R,5S,6S)-5-hydroxy-4-methoxy-4,6-dimethyloxan-2-yl]oxy}-3,5,6,8,10,12,14-heptamethyl-15-oxo-4-({[10-(triphenylphosphosphoniumyl)decyl]carbamoyl}oxy)-1-oxa-6-azacyclopentadecan-11-yl]oxy}-6-methyloxan-3-yl acetate bromide], the “% Confluence” value turned out to be 9.6%.

On to `CC[C@H]1OC(=O)[C@H](C)[C@@H](O[C@H]2C[C@@](C)(OC)[C@@H](O)[C@H](C)O2)[C@H](C)[C@@H](O[C@@H]2O[C@H](C)C[C@H](N(C)C)[C@H]2O)[C@](C)(O)C[C@@H](C)CN(C(=O)CCCCCCCCCCC[P+](c2ccccc2)(c2ccccc2)c2ccccc2)[C@H](C)[C@@H](O)[C@]1(C)O` [Example 5, {12-[(2R,3S,4R,5R,8R,10R,11R,12S,13S,14R)-11-{[(2S,3R,4S,6R)-4-(dimethylamino)-3-hydroxy-6-methyloxan-2-yl]oxy}-2-ethyl-3,4,10-trihydroxy-13-{[(2R,4R,5S,6S)-5-hydroxy-4-methoxy-4,6-dimethyloxan-2-yl]oxy}-3,5,8,10,12,14-hexamethyl-15-oxo-1-oxa-6-azacyclopentadecan-6-yl]-12-oxododecyl}triphenylphosphonium hexafluorophosphate(V)], for which the “% Confluence” value is 5%.

The values above are taken from patent US11560395B2, “Azithromycin derivatives containing a phosphonium ion as anticancer agents” (Rising Tide Foundation, priority 2017, dated 2023).
